According to ChEMBL document CHEMBL5518238, “Structure-Activity Relationship (SAR) Studies of Novel Monovalent AR/AR-V7 Dual Degraders with Potent Efficacy against Advanced Prostate Cancer” (J Med Chem, 2024):
The source made the active and inactive calls. No cut-off for these calls is given here.

How the values were obtained:
[1] = tested on: Androgen receptor (Homo sapiens), P10275 [UNDEFINED MUTATION]; assay: Induction of AR-V7 degradation in human 22Rv1 cells at 10 uM incubated for 24 hrs in presence of […] by Western blot analysis; assay type: cell-based
[2] = target: T1, Androgen receptor (Homo sapiens) (UniProt P10275); assay: Induction of AR degradation in human 22Rv1 cells at 10 uM incubated for 24 hrs in presence of MDM2 by Western blot analysis; assay type: cell-based
T1 sequence (whole entry): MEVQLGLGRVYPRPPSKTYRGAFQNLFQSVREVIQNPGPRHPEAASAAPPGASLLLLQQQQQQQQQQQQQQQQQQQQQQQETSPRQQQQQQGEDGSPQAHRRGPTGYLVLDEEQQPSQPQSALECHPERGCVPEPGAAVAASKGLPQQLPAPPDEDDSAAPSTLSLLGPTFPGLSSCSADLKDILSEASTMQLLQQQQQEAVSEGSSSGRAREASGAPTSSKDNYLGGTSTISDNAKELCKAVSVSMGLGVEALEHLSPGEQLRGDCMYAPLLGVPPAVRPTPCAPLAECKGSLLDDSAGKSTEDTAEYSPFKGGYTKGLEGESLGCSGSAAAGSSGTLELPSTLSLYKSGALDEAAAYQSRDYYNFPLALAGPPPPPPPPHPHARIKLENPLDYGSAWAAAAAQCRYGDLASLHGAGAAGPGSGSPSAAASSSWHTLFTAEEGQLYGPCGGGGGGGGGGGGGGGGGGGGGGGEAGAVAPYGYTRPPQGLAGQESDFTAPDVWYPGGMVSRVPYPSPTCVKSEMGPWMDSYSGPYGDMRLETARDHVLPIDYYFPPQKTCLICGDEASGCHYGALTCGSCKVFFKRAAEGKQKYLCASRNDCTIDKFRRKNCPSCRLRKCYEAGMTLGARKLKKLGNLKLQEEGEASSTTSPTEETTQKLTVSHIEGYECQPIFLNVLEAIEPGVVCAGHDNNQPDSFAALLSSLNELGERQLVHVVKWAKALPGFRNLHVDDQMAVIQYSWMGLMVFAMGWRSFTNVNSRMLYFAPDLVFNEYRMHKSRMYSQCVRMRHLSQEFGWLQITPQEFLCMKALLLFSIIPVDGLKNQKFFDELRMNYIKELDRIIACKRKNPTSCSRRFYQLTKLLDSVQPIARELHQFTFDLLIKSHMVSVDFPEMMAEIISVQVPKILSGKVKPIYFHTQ

[3] = tested on: CWR22R; assay: Downregulation of SLC26A2 mRNA expression in human 22Rv1 cells at 10 uM incubated for 24 hrs by qRT-PCR analysis; assay type: functional, cell-based
[4] = tested on: CWR22R; assay: Antitumor activity against human 22Rv1 cells xenografted in NSG mouse assessed as tumor growth inhibition at 30 mg/kg, IG administered once daily for 21 days; assay type: functional; settings: 22Rv1, po, 504 h, time 21 day, read-out: TGI
[5] = tested on: CWR22R; assay: Downregulation of […] mRNA expression in human 22Rv1 cells incubated for 24 hrs by qRT-PCR analysis; assay type: functional, cell-based; settings: dose 5-10 µM
[6] = MRT (0 to infinity) in Sprague-Dawley rat at 5 mg/kg, iv by LC-MS/MS analysis; assay type: ADME, organism-based; settings: in vivo
[7] = tested on: CWR22R; assay: Downregulation of P3H3 mRNA expression in human 22Rv1 cells at 10 uM incubated for 24 hrs by qRT-PCR analysis; assay type: functional, cell-based
[8] = tested on: CWR22R; assay: Downregulation of ACSL3 mRNA expression in human 22Rv1 cells at 10 uM incubated for 24 hrs by qRT-PCR analysis; assay type: functional, cell-based
[9] = tested on: CWR22R; assay: Downregulation of DHCR24 mRNA expression in human 22Rv1 cells at 10 uM incubated for 24 hrs by qRT-PCR analysis; assay type: functional, cell-based
[10] = Toxicity in NSG mouse xenografted with human 22Rv1 cells assessed as lung damage t at 30 mg/kg, IG administered once daily for 21 days by H and E staining based analysis; assay type: organism-based, CWR22R; settings: in vivo, po, 504 h, time 21 day
[11] = MRT (0 to t) in Sprague-Dawley rat at 5 mg/kg, iv by LC-MS/MS analysis; assay type: ADME, organism-based; settings: in vivo
[12] = target: T2, Androgen receptor (Homo sapiens, UniProt P10275); assay: (§1) Induction of AR degradation in human 22Rv1 cells incubated for 24 hrs by Western blot analysis; assay type: cell-based
T2 sequence (P10275 whole entry): T1 sequence (whole entry)

[13] = target: T1, Androgen receptor (Homo sapiens); assay: as §1; assay type: cell-based; settings: dose 1-10 µM
[14] = tested on: Androgen receptor (Homo sapiens), P10275 [UNDEFINED MUTATION]; assay: Binding affinity to AR-V7 (unknwon origin) assessed as thermal stabilization at 10 uM incubated for 2 hrs by CETSA analysis; assay type: cell-based; settings: 22Rv1
[15] = target: T1, Androgen receptor (Homo sapiens); assay: Induction of AR degradation in human LNCaP cells at 5 uM by Western blot analysis; assay type: cell-based; settings: time <= 24.0 hrs, TDE = time-dependent effect
[16] = Half life in Sprague-Dawley rat at 5 mg/kg, iv by LC-MS/MS analysis; assay type: ADME, organism-based; settings: in vivo
[17] = tested on: CWR22R; assay: Antitumor activity against human 22Rv1 cells xenografted in NSG mouse assessed as change in tumor volume at 30 mg/kg, IG administered once daily for 21 days; assay type: functional, organism-based; settings: time 21.0 day

Compound: CC1(C)C(=O)N(c2ccc(C#N)c(C(F)(F)F)c2)C(=O)N1CCNc1ccc(F)c2ncccc12
- Activity [1]: Active
- Activity [2]: Active
- Activity [3]: Active
- inhibition in vivo at 30 mg/kg [4]: 63%
- Activity [5]: Dose-Dependent Effect
- MRT [6]: 4.1 h
- Activity [7]: Active
- Activity [8]: Active
- Activity [9]: Active
- Activity [10]: Non-Toxic
- MRT last [11]: 1.3 h
- DC50 [12]: 2670 nM
- Activity [13]: Dose-Dependent Effect
- Activity [14]: inactive
- Activity [15]: Tde
- half-life [16]: 1.4 h
- Activity [17]: Active
